Measured values published in patent US9206188B2, “Substituted pyrrolo[2,3-b]pyridines as ITK and JAK inhibitors” (Arrien Pharmaceuticals LLC, priority 2013, dated 2015).
Where two headings read alike, the source gives them in different places.

How the values were obtained:
ITK = ITK (Homo sapiens (Human), UniProt Q08881); experiment: ITK kinase assay (radiometric filter binding, 10 μM ATP); type: biochemical
Description: (§1) All additions were done on ice, followed by the addition of ATP mix. Wells were uniformly mixed using an Eppendorff plate shaker and incubated at 30° C. for 20 min, and stopped by the addition of 5 μL of 3% phosphoric acid. Volume was increased to 100 μL by adding 0.8% phosphoric acid which was then transferred to PC filter mats (Millipore), pre-equilibrated with 70% ethanol and water. Plates were washed thrice with 100 μL 0.8% phosphoric acid and dried for an hour at 60° C. 100 μL scintillation fluid was added into each well and reading taken in Perkin Elmer TOPCOUNT beta counter.
(§2) The reactions were carried out at 10 μM ATP for ITK, JAK3 and other TEC and Janus family of kinase.

JAK3 = JAK3 (Homo sapiens (Human), UniProt P52333); experiment: JAK3 kinase assay (radiometric filter binding, 10 μM ATP); type: biochemical
Description: as §1, §2

[1] = 10-dose IC50 mode, 10 μM ATP, read-out: ITK kinase inhibition
[2] = 10-dose IC50 mode, 10 μM ATP, read-out: JAK3 kinase inhibition
[3] = read-out: biochemical IC50 against ITK
[4] = read-out: biochemical IC50 against JAK3

Chain of ITK (Q08881 whole entry): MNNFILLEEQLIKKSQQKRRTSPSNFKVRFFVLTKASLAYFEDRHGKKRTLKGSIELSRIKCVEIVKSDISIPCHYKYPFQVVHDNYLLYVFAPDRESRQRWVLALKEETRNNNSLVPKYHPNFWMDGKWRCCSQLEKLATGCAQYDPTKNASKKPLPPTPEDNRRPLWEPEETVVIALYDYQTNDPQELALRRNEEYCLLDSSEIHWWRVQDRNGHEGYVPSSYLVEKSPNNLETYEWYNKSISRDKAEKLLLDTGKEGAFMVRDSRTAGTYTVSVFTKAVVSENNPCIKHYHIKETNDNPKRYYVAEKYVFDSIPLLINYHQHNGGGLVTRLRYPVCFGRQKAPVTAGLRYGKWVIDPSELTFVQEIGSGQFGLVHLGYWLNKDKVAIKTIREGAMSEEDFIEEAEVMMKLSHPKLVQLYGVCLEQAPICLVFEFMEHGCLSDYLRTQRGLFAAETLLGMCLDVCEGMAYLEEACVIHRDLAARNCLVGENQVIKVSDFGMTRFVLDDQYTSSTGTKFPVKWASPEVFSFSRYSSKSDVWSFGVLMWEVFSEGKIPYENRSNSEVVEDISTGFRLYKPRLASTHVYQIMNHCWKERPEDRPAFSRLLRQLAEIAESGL
Chain of JAK3 (P52333 whole entry): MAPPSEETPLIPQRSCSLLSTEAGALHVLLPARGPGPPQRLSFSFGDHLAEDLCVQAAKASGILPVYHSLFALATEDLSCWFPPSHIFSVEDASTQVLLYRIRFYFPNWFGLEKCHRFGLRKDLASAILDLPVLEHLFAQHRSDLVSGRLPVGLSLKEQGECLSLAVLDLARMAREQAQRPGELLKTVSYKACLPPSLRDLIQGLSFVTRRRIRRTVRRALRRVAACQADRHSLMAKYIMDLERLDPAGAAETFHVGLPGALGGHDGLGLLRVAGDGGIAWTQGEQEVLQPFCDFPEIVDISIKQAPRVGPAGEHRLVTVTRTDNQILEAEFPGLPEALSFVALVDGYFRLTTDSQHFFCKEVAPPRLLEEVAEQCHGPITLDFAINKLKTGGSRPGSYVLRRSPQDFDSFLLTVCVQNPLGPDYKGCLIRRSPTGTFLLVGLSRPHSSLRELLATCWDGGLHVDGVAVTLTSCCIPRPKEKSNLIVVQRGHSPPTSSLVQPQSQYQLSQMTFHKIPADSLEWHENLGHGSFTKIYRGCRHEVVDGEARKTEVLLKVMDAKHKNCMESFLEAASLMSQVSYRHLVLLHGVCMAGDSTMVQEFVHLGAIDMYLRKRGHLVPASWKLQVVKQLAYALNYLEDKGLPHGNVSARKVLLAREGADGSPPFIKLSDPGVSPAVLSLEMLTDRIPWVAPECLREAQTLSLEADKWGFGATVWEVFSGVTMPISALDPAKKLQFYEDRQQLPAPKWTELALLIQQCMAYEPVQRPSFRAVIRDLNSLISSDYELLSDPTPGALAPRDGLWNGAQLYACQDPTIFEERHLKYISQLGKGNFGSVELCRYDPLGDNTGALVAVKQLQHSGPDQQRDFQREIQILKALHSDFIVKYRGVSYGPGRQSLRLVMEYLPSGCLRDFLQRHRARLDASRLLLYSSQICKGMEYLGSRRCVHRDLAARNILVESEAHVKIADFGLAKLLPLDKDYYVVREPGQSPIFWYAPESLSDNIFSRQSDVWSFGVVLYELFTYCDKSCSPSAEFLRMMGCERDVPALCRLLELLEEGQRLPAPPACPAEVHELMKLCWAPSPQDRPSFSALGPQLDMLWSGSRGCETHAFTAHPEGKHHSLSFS

IC50 (ITK; [1]) [µM]	IC50 (JAK3; [2]) [µM]	IC50 (ITK; [3]) [µM]	IC50 (JAK3; [4]) [µM]	Compound
> 1	> 1			C=CC(=O)Nc1cccc(-c2cnc3[nH]nc(C)c3c2)c1 [Example 1, N-(3-(3-methyl-1H-pyrazolo[3,4-b]pyridin-5-yl)phenyl)acrylamide]
> 0.1	> 0.1			C=CC(=O)Nc1cccc(-c2cnc3[nH]cc(-c4cc5ccc(C)cc5[nH]4)c3n2)c1 [Example 2, N-(3-(7-(6-methyl-1H-indol-2-yl)-5H-pyrrolo[2,3-b]pyrazin-2-yl)phenyl)acrylamide]
		0.1 to 1	0.1 to 1	C=CC(=O)Nc1cccc(-c2cnc3[nH]cc(-c4cc5ccccc5[nH]4)c3n2)c1 [Example 5, N-(3-(7-(1H-indol-2-yl)-5H-pyrrolo[2,3-b]pyrazin-2-yl)phenyl)acrylamide]
		0.1 to 1	0.1 to 1	C=CC(=O)Nc1cccc(-c2cnc3[nH]cc(C)c3c2)c1 [Example 8, N-(3-(3-methyl-1H-pyrrolo[2,3-b]pyridin-5-yl)phenyl)acrylamide]
> 0.1	> 0.1			C=CC(=O)Nc1cc(-c2cnc3[nH]cc(C)c3c2)ccc1Cl [Example 15, N-(2-chloro-5-(3-methyl-1H-pyrrolo[2,3-b]pyridin-5-yl)phenyl)acrylamide]
> 1	< 0.1	0.1 to 1	0.1 to 1	C#CC1(C(=O)Nc2cccc(-c3cnc4[nH]cc(Cl)c4c3)c2)CC1 [Example 16, N-(3-(3-chloro-1H-pyrrolo[2,3-b]pyridin-5-yl)phenyl)-1-ethynylcyclopropanecarboxamide]
> 1	> 1			C=CC(=O)Nc1ccccc1-c1cnc2[nH]cc(C)c2c1 [Example 17, N-(2-(3-methyl-1H-pyrrolo[2,3-b]pyridin-5-yl)phenyl)acrylamide]
> 1	> 1			C=CC(=O)Nc1ccccc1-c1cnc2[nH]cc(Cl)c2c1 [Example 18, N-(2-(3-chloro-1H-pyrrolo[2,3-b]pyridin-5-yl)phenyl)acrylamide]
< 0.1	< 0.1			CC#CC(=O)Nc1cccc(-c2cnc3[nH]cc(Cl)c3c2)c1 [Example 19, N-(3-(3-chloro-1H-pyrrolo[2,3-b]pyridin-5-yl)phenyl)but-2-ynamide]
< 0.1	< 0.1			C#CC(=O)Nc1cccc(-c2cnc3[nH]cc(Cl)c3c2)c1 [Example 20, N-(3-(3-chloro-1H-pyrrolo[2,3-b]pyridin-5-yl)phenyl)propiolamide]
< 0.1	< 0.1			CCC#CC(=O)Nc1cccc(-c2cnc3[nH]cc(Cl)c3c2)c1 [Example 21, N-(3-(3-chloro-1H-pyrrolo[2,3-b]pyridin-5-yl)phenyl)pent-2-ynamide]
< 0.1	< 0.1			CC#CC(=O)Nc1cccc(-c2cnc3[nH]cc(C)c3c2)c1 [Example 23, N-(3-(3-methyl-1H-pyrrolo[2,3-b]pyridin-5-yl)phenyl)but-2-ynamide]
> 1				CN(C)/C=C/C(=O)Nc1cccc(-c2cnc3[nH]cc(Cl)c3c2)c1 [Example 44, (E)-N-(3-(3-chloro-1H-pyrrolo[2,3-b]pyridin-5-yl)phenyl)-3-(dimethylamino)acrylamide]
	> 0.1			C=CC(=O)Nc1cc(-c2cnc3[nH]cc(Cl)c3c2)cc(F)c1F [Example 64, N-(5-(3-chloro-1H-pyrrolo[2,3-b]pyridin-5-yl)-2,3-difluorophenyl)acrylamide]
	< 0.1			CC#CC(=O)Nc1cc(-c2cnc3[nH]cc(Cl)c3c2)ccc1F [Example 88, N-(5-(3-chloro-1H-pyrrolo[2,3-b]pyridin-5-yl)-2-fluorophenyl)but-2-ynamide]
	> 0.1			(E)-N-(2-chloro-5-(3-methyl-1H- pyrrolo[2,3-b]pyridin-5- yl)phenyl)pent-1-enamide [Example 14]

Compound	IC50 (ITK; [1]) [µM]	IC50 (JAK3; [2]) [µM]	IC50 (ITK; [3]) [µM]	IC50 (JAK3; [4]) [µM]
O=C(CF)Nc1cccc(-c2cnc3[nH]cc(Cl)c3c2)c1 [Example 22, N-(3-(3-chloro-1H-pyrrolo[2,3-b]pyridin-5-yl)phenyl)-2-fluoroacetamide]	> 1	< 0.1		
